The values that follow are results of earlier work, collected in patent publication US20250099481A1, “BCL-2 INHIBITORS” (Newave Pharmaceutical Inc., priority 2022, published 2025).

The conditions of data set [1]: in vivo.
The next data set addresses T1, Bcl-w (Homo sapiens, UniProt Q92843).
T1 sequence (Q92843 1-193): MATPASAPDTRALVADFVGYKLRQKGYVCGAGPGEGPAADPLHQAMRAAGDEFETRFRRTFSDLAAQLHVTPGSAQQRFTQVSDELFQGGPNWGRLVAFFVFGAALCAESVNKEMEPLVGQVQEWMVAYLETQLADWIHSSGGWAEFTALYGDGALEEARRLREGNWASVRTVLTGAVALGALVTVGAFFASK

The subject of a further data set is H345 xenograft. The note with it: 100 mg/kg/day, H345 xenograft model.
Data set [2] concerns xenograft models of small-cell lung cancer and acute lymphoblastic leukemia. The note with it: oral administration alone.
Data set [3] relates to DoHH2, Granta-519 xenografts. The note with it: single agent or in combination with Bendamustine and other agents.
The test system of data set [4] is CLL who have 17p deletion. The note with it: Human Phase I and II data, CLL with 17p deletion.
The test system of the next data set is RS4;11 xenografts. The note with it: single dose of 100 mg/kg.
The subject of another data set is CLL. The note with it: read-out: average EC50, apoptosis.

Regarding `CN(C)CC[C@H](CSc1ccccc1)Nc1ccc(S(=O)(=O)NC(=O)c2ccc(N3CCN(Cc4ccccc4-c4ccc(Cl)cc4)CC3)cc2)cc1[N+](=O)[O-]` [ABT-737], the aqueous solubility entry is “low aqueous solubility”. Also, the oral bioavailability result in [1] is “not orally bioavailable”. Moreover, the “efficacy in animal models” value in the data set on established tumors is “improves survival, causes regression of established tumors, and produces cures in a high percentage of the mice”.
In general, Ki refers to a dissociation constant, usually derived from enzyme kinetics or from competition with a known ligand. By IC50 is commonly meant the point on the concentration scale where inhibition reaches its midpoint. For orientation: TGI means the reduction of tumour growth relative to the control group. As to `CC1(C)CCC(c2ccc(Cl)cc2)=C(CN2CCN(c3ccc(C(=O)NS(=O)(=O)c4ccc(N[C@H](CCN5CCOCC5)CSc5ccccc5)c(S(=O)(=O)C(F)(F)F)c4)cc3)CC2)C1` [ABT-263], the Ki at Bcl-w is 1 nM. Moreover, the “number of circulating platelets” value in the data set with circulating platelets (clinical trial, inhibition of BCL-XL) is “rapid, concentration-dependent decrease in the number of circulating platelets”. For the same molecule, in the data set with circulating platelets (single-agent treatment in patients), the dose-limiting toxicity result is “thrombocytopenia is the dose-limiting toxicity”. The IC50 with SCLC H146 cell line is 110 nM. Besides, in the data set on H345 xenograft, the TGI is 80% and the “treated tumors indicating at least a 50% reduction in tumor volume” value is given as 20%. Besides, in data set [2], the tumor response entry is “complete tumor regressions”.
As a reminder, the EC50 is the concentration giving half of the maximal effect. For ABT-199, in data set [3], the xenograft growth result was “inhibits xenograft growth”. The clinical efficacy result in data set [4] is given as “highly efficacious”. Also, in the data set on RS4;11 xenografts, the “maximal tumor growth inhibition” value was 95% and the tumor growth delay was 152%. In addition, the EC50 with CLL is 3 nM. The EC50 with RS4;11 cells is 8 nM. Also, the apoptosis induction result in the data set with RS4;11 cells (cytochrome c release, caspase activation, accumulation of sub-G0/G1 DNA) is “induces a rapid apoptosis”.
